Test results published in publication PMC6099690, “TRPA1 Modulating C14 Polyacetylenes from the Iranian Endemic Plant Echinophora platyloba” (Molecules : A Journal of Synthetic Chemistry and Natural …, 2018).

Assays:
[1] = target: T1, rat TRPA1 (Rattus norvegicus, UniProt Q6RI86); test: Calcium influx (Fluo-4 fluorimetric) agonist assay in HEK293 cells transfected with rTRPA1; assay type: cell-based; settings: for EC50: half-maximal increase in [Ca2+]i, read-out: Potency EC50; for Efficacy: maximum [Ca2+]i elevation as % of allylisothiocyanate (AITC) at 100 μM
T1 construct: expressed in transfected cells
Experimental: (§1) HEK-293 cells stably over-expressing recombinant rat TRPA1, TRPM8, TRPV2-4, TRPM8 or human TRPV1 were selected by Geneticin 600 μg mL^−1, grown on 100-mm diameter Petri dishes as monolayers in minimum essential medium supplemented with non-essential amino acids, 10% fetal bovine serum, and 2 mM glutamine, and maintained under 5% CO2 at 37 °C. Stable expression of each channel was checked by quantitative real time-PCR. The effect of the substances on intracellular Ca^2+ concentration [Ca^2+]i was determined using Fluo-4, a selective intracellular fluorescent probe for Ca^2+. Toward this aim, on the day of the experiment, cells over-expressing the TRP channels were loaded for 1 h in the dark at room temperature with the methyl ester Fluo4-AM (4 μM in DMSO containing 0.02% Pluronic F-127, Invitrogen, Carlsbad, CA, USA) in minimum essential medium without fetal bovine serum. After the loading, cells were washed twice in Tyrode’s buffer (145 mM NaCl, 2.5 mM KCl, 1.5 mM CaCl2, 1.2 mM MgCl2, 10 mM D-glucose, and 10 mM HEPES, pH 7.4), re-suspended in Tyrode’s buffer, and transferred (about 100,000 cells) to the quartz cuvette of the spectrofluorimeter (Perkin-Elmer LS50B; PerkinElmer Life and Analytical Sciences, Waltham, MA, USA) under continuous stirring. [Ca^2+]i was determined before and after the addition of various concentrations of test compounds by measuring cell fluorescence at 25 °C (λEX = 488 nm, λEM = 516 nm). Curve fitting (sigmoidal dose-response variable slope) and parameter estimation were performed with GraphPad Prism® (GraphPad Software Inc., San Diego, CA, USA). Potency was expressed as the concentration of test substances exerting a half-maximal agonist effect (i.e., half-maximal increases in [Ca^2+]i (EC50), calculated by using GraphPad®. The efficacy of the agonists was first determined by normalizing their effect to the maximum Ca^2+ influx effect on [Ca^2+]i observed with application of 4 μM ionomycin (Sigma, St. Louis, MO, USA). The increases in fluorescence in wild-type HEK293 cells (i.e., not transfected with any construct) were used as baseline and subtracted from the values obtained from transfected cells. The effects of TRPA1 agonists are expressed as a percentage of the effect obtained with 100 μM allyl isothiocyanate (AITC). Antagonist/desensitizing behavior was evaluated for TRPA1 by adding the test compounds in the quartz cuvette 5 min before stimulation of cells with the agonist AITC (100 μM). Data are expressed as the concentration exerting a half maximal inhibition of agonist-induced [Ca^2+]i elevation (IC50), which was calculated again using GraphPad Prism® software. The effect on [Ca^2+]i exerted by agonist alone was taken as 100%. Dose-response curves were fitted by a sigmoidal regression with variable slope. All determinations were at least performed in triplicate. Statistical analysis of the data was performed by analysis of variance at each point using ANOVA followed by Bonferroni’s test.

[2] = target: T1, rat TRPA1; test: Antagonist/desensitizing assay: inhibition of AITC (100 μM)-induced [Ca2+]i elevation in rTRPA1-HEK293 cells; assay type: cell-based; settings: compound added 5 min before stimulation with AITC 100 μM; HEK293 cells transfected with rTRPA1; read-out: IC50 inh TRPA1 (AITC 100 μM)
Experimental: as §1, with “Potency was expressed as the concentration of test substances exerting a half-maximal agonist effect (i.e., half-maximal increases in [Ca^2+]i (EC50), calculated by using GraphPad®. The efficacy of the agonists was first determined by normalizing their effect to the maximum Ca^2+ influx effect on [Ca^2+]i observed with application of 4 μM ionomycin (Sigma, St. Louis, MO, USA). The increases in fluorescence in wild-type HEK293 cells (i.e., not transfected with any construct) were used as baseline and subtracted from the values obtained from transfected cells. The effects of TRPA1 agonists are expressed as a percentage of the effect obtained with 100 μM allyl isothiocyanate (AITC).” left out, “The effect on [Ca^2+]i exerted by agonist alone was taken as 100%. Dose-response curves were fitted by a sigmoidal regression with variable slope. All determinations were at least performed in triplicate. Statistical analysis of the data was performed by analysis of variance at each point using ANOVA followed by Bonferroni’s test.” left out

T1 sequence (Q6RI86 whole entry): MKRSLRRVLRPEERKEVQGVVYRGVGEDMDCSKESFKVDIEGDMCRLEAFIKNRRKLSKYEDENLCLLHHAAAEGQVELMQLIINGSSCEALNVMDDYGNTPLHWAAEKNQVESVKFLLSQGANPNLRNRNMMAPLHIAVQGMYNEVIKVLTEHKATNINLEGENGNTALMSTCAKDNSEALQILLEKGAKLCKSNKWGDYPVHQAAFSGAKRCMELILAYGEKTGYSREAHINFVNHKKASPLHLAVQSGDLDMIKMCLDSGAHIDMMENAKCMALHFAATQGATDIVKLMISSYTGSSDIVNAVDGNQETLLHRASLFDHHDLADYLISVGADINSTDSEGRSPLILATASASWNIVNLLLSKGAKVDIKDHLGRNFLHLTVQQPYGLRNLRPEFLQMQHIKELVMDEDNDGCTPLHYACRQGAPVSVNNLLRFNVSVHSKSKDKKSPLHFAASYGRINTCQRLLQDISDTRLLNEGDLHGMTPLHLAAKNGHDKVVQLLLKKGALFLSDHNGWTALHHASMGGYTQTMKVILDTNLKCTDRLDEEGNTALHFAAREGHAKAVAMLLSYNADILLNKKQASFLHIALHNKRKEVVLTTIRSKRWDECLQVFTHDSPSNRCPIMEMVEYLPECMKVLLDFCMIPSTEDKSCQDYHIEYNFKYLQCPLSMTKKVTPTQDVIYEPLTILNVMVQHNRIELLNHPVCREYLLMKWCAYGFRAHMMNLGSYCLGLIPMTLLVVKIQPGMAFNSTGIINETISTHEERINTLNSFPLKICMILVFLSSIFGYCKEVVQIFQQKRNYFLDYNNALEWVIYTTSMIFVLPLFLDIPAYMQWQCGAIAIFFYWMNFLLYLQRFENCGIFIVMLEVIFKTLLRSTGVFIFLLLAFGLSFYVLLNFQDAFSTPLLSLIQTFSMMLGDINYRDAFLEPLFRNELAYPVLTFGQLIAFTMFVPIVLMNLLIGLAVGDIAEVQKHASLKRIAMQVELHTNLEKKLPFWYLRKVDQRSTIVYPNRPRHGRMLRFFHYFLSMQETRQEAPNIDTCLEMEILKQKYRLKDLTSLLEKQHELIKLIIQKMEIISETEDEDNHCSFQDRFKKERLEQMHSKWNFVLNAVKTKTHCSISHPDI

Row | SMILES | EC50 [1] [µM] | Efficacy [1] [% AITC] | Efficacy ([1]; listed as 5) | IC50 [2] [µM] | Efficacy ([1]; listed as 4) | Efficacy ([1]; listed as 3)
1 | CCCC#CC#CCCc1cccc(=O)o1 [Echinophorin A (5), echinophorin A] | 20.3 ± 3.2 | 81.0 ± 3.3 | about 80 % AITC | 45.7 ± 3.5 | – | –
2 | C/C=C\C#CC#CCCc1cccc(=O)o1 [Echinophorin B (4), echinophorin B] | 25 ± 3 | 82.0 ± 2.8 | – | 37.2 ± 0.8 | about 80 % AITC | –
3 | CC#CC#CC#CCCc1cccc(=O)o1 [Echinophorin D (3), echinophorin D] | 30.9 ± 2.8 | 51.7 ± 1.3 | – | 87 ± 1.5 | – | about 52 % AITC
